Patent EP0552417B1, “Cyclic peptides and use thereof” (priority 1991, dated 1993)
pIC50: −log10 of the molar value. Non-standard residues stand in square brackets, D forms with d. Residues, ends and D or L forms follow the SMILES beside them. *: point of attachment. 1Nal = N[C@@H](Cc1cccc2ccccc12)C(=O)O; Bn = c1ccc(C*)cc1

What was measured:
[1] = biological target: T1, endothelin receptor B (ETB) (Bos taurus, UniProt P28088); experiment: Assay of affinity for receptor (2): binding activity on ETB receptor *1, 125I-labeled endothelin-1, bovine brain membrane fraction; settings: 1 hour; for Binding Activity on ET Receptor (R. act.) ETB*1: specific activity, taking the binding activity of the compound of Example 8 on receptor B as 100, 25°C
T1 construct: A membrane fraction prepared from the bovine brain; from tissue; host or cells: bovine brain membrane fraction
T1 sequence (P28088 27-441): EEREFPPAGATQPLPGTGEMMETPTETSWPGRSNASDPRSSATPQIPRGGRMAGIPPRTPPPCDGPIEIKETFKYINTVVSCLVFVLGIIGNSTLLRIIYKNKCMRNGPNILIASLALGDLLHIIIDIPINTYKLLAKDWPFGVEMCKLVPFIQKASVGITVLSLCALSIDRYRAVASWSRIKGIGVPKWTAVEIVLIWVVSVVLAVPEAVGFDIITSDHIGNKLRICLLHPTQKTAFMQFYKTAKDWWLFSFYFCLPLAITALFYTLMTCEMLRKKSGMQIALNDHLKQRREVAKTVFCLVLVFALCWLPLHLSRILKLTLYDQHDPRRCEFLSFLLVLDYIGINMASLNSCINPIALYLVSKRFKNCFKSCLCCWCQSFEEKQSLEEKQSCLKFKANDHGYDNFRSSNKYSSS
Procedure: Assay of Affinity for Receptor (2) ... Binding Activity on ETB Receptor *1
A membrane fraction prepared from the bovine brain was diluted to 0.15 mg/ml by using a buffer solution for assay, and 100 µl of the resulting suspension of the membrane fraction was poured into each assay tube to use for assay. To this suspension of the membrane fraction was added 2 µl of 5 nM ^125I labeled endothelin-1 solution. Further, 3 µl of a test peptide solution was added thereto, followed by incubation at a temperature of 25°C for 1 hour. Then, the resulting suspension was diluted with 900 µl of the buffer solution for assay cooled with ice, and thereafter separated into a supernatant and a precipitate by centrifugation at 12,000 X g for 10 minutes. Cell membranes and an endothelin receptor B (ETB) embedded therein were contained in the precipitate, and radioactive iodine-labeled endothelin bound to the receptor was also recovered in the precipitate. Accordingly, the amount of radioactive iodine-labeled endothelin bound to the endothelin receptor B (ETB) was determined by measuring the amount of radioactive iodine contained in the precipitate with a gamma-ray counter. The numerical value of ETB shown in Table 1 is the value of specific activity, taking the binding activity of the compound of Example 8 on the receptor B as 100.

ETB = ETB radio receptor assay *2, 125I-endothelin-1, guinea pig kidney crude membrane fraction; type: binding, Guinea pigs; settings: relative activity, 37 °C, 90 minutes
Outline: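 Radioligand binding used crude guinea pig kidney membranes (2.1 µg protein) with 740 Bq 125I-endothelin-1. Incubation was 90 min at 37 °C in 50 mM Tris-HCl pH 7.4, 0.1 mM PMSF, 1 mM EDTA, 0.2% BSA. Bound radioactivity was collected by GF/B filtration and measured by gamma counting.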

| Structure (SMILES) | pIC50 ([1]; 25°C) | Binding Activity on ET Receptor (R. act.) ETB*1 [1] | Binding Activity on ET Receptor (R. act.) ETB*2 (ETB) |
| --- | --- | --- | --- |
| CC(C)C[C@@H]1NC(=O)[C@@H](CC(C)C)NC(=O)[C@H](CC(=O)O)NC(=O)[C@H](Cc2c[nH]c3ccccc23)NC(=O)[C@@H](CC(=O)O)NC(=O)[C@@H](Cc2c[nH]c3ccccc23)NC1=O [Example 8, cyclo[-D-Asp-Trp-Asp-D-Leu-Leu-D-Trp-]] (cyclo(D[dL]L[dW][dD]W)) | 5.52 | 100 | 100 |
| CC(C)C[C@@H]1NC(=O)[C@@H](CC(C)C)NC(=O)[C@H](CC(=O)O)NC(=O)[C@H](Cc2cccc3ccccc23)NC(=O)[C@@H](CC(=O)O)NC(=O)[C@@H](Cc2c[nH]c3ccccc23)NC1=O [Example 23, Cyclo[-D-Asp-Nal(1)-Asp-D-Leu-Leu-D-Trp-]] (cyclo([1Nal]D[dL]L[dW][dD])) |  | 11 | 7.7 |
| CC(C)C[C@@H]1NC(=O)[C@@H](CC(C)C)NC(=O)[C@H](CCC(=O)O)NC(=O)[C@H](Cc2c[nH]c3ccccc23)NC(=O)[C@@H](CC(=O)O)NC(=O)[C@@H](Cc2c[nH]c3ccccc23)NC1=O [Example 34, Cyclo[-D-Asp-Trp-Glu-D-Leu-Leu-D-Trp-]] (cyclo(E[dL]L[dW][dD]W)) |  | 77 | 44 |
| CC(C)C[C@@H]1NC(=O)[C@H](Cc2c[nH]c3ccccc23)NC(=O)[C@@H](CC(=O)O)NC(=O)[C@@H](Cc2c[nH]c3ccccc23)NC(=O)[C@H](CC(C)C)NC(=O)[C@@H](CC(C)C)NC1=O [Example 35, Cyclo[-D-Asp-Trp-Leu-D-Leu-Leu-D-Trp-]] (cyclo(L[dL]L[dW][dD]W)) |  | 52 | 24 |
| CC(C)C[C@@H]1NC(=O)[C@@H](CC(C)C)NC(=O)[C@@H]2CCCN2C(=O)[C@H](Cc2c[nH]c3ccccc23)NC(=O)[C@@H](CC(=O)O)NC(=O)[C@@H](Cc2c[nH]c3ccccc23)NC1=O [Example 36, Cyclo[-D-Asp-Trp-Pro-D-Leu-Leu-D-Trp-]] (cyclo(L[dW][dD]WP[dL])) |  | 40 | 42 |
| CC(C)C[C@@H]1NC(=O)[C@@H](CC(C)C)NC(=O)[C@H](CO)NC(=O)[C@H](Cc2c[nH]c3ccccc23)NC(=O)[C@@H](CC(=O)O)NC(=O)[C@@H](Cc2c[nH]c3ccccc23)NC1=O [Example 37, Cyclo[-D-Asp-Trp-Ser-D-Leu-Leu-D-Trp-]] (cyclo(L[dW][dD]WS[dL])) |  | 22 | 18 |
| CC(C)C[C@@H]1NC(=O)[C@@H](CC(C)C)NC(=O)[C@H](COCc2ccccc2)NC(=O)[C@H](Cc2c[nH]c3ccccc23)NC(=O)[C@@H](CC(=O)O)NC(=O)[C@@H](Cc2c[nH]c3ccccc23)NC1=O [Example 38, Cyclo[-D-Asp-Trp-Ser(Bzl)-D-Leu-Leu-D-Trp-]] (cyclo(L[dW][dD]WS(Bn)[dL])) |  | 66 | 170 |
